Results from patent US6878713B2, “Generation triple-targeting, chiral, broad-spectrum antimicrobial 7-substituted piperidino-quinolone carboxylic acid derivatives, their preparation, compositions and use as medicaments” (Wockhardt Limited, priority 2001, dated 2005).
≈ marks a conversion by molar mass, not a printed value. Like-named read-outs stand apart in the source and are kept apart here.

Key:
[1] = Phototoxicity (oral dose, UVA exposure, ear erythema and oedema); type: in vivo; conditions: Swiss Albino mice, UVA 4 hours for 4 consecutive days
Protocol: The stock solutions for different doses were prepared freshly on the day of experimentation. Appropriate concentration of each dose was chosen to give a constant dosage volume of 0.3-0.4 ml/20 g body weight of mouse. The treated mice were exposed to UVA light source immediately after dosing for 4 hours and for 4 consecutive days. The mean light intensity in the UVA chamber was adjusted to 0.9-1.2 mW/cm^2. […] A phototoxic dose is one which causes ear erythema and oeadema.

[2] = system: Fluoroquinolone-Resistant Strains; experiment: In-vitro antimicrobial test (MIC, two-fold serial agar dilution, NCCLS), Table 18; type: cell-based
Protocol: (§1) The test method was in accordance with the standard NCCLS protocol (Methods for Dilution Antimicrobial Susceptibility Tests for Bacteria that grow Aerobicially, Approved Standards, M7-A5, Fifth Edition, January 2000).
(§2) The antibacterial activities (minimum inhibitory concentration: MIC, […]) were determined by using the two-fold serial agar dilution method recommended by NCCLS. The media used for preculture and main culture were Tryptic Soya broth (Difco) and Mueller Hinton medium (Difco), respectively. The Mueller Hinton agar was supplemented with 5% sheep blood for streptococci. Overnight cultures were diluted with buffered saline (pH 7.2) to the final cell density of 5×10^6-10^7 CFU/ml, and each bacterial suspension was applied with a replicator (Denley's multipoint inoculator, UK) onto a series of Mueller-Hinton agar plates containing antibacterial agents at various concentrations. Final inoculum was approximately 10^4 CFU/spot. The plates were incubated for 18 hrs at 37° C. The MIC was defined as the lowest concentration of an antibacterial agent that inhibits the development of visible microbial growth on agar.

[3] = system: MRSA 5027; experiment: Resistance to resistance development (sequential passages through drug-containing media); type: cell-based; conditions: Staphylococcus aureus
[4] = system: Multidrug-Resistant (MDR) Pneumococcal Infections; experiment: In-vivo antimicrobial test, systemic infection model (mouse septicemia), Table 22; parameters: species or system Swiss male and female mice; conditions: Streptococcus pneumoniae, po, oral dosing 1 hour and 5 hours post-infection, survival on day 7, strain resistant to β-lactams, macrolides and fluoroquinolones, read-out: ED50 p.o., MDR S. pneumoniae 718
Protocol: The in vivo efficacy was studied through mouse septicemia model of infection in Swiss male and female mice (4 weeks old, 20+2 g weight) using 6 animals in each group. Infective organisms were inoculated intraperitonially. Compound were administered by oral route 1 hour and 5 hours post-infection. […] Appropriate comparators were included in the study.

[5] = system: J 744 (mouse macrophage); experiment: Cytotoxicity test (Alamar blue), J 744 cells, Table 23; type: cell-based; conditions: 3 hrs drug exposure, further 96 hrs incubation
Protocol: Compounds were evaluated for their cytotoxic potential against two celllines viz. […] Cytotoxic drugs inhibit this reaction resulting into blue coloured well. Minimum drug concentration inhibiting Alamar blue color change i.e. resulting into blue coloured wells for a given drug is considered cytotoxic concentration.

[6] = system: V79 (Chinese Hamster Lung); experiment: Cytotoxicity test (Alamar blue), V79 cells, Table 23; type: cell-based; conditions: 3 hrs drug exposure, further 96 hrs incubation
Protocol: Compounds were evaluated for their cytotoxic potential against two […] viz. […] Cells were grown for 3-4days in a culture flask using D-MEM (Dulbecco's Modified Eagle. […] Freshly grown cells were distributed in microtiter plates at a cell density of 10^5-10^6 cells/well and allowed to […] form monolayer by incubating the microtiter plate at […] for 24 hrs. […] Following 3 hrs. of drug exposure, cell were washed with D-MEM and incubated further for 96 hrs. Cytotoxic effects of drugs were monitored through daily microscopic observation and by ascertaining the metabolic status through redox indicator Alamar blue. Healthy actively metabolising cells bring about colour change of Alamar blue from blue to pink within an overnight incubation. Cytotoxic drugs inhibit this reaction resulting into blue coloured well. Minimum drug concentration inhibiting Alamar blue color change i.e. resulting into blue coloured wells for a given drug is considered cytotoxic concentration.

[7] = system: Fluoroquinolone Sensitive Strains; experiment: In-vitro antimicrobial test (MIC, two-fold serial agar dilution, NCCLS), Table 17; type: cell-based
[8] = system: Trovafloxacin-Resistant and Vancomycin-Resistant Enterococci; experiment: In-vitro antimicrobial test (MIC, two-fold serial agar dilution, NCCLS), Table 19; type: cell-based
Text: The comparative antimicrobial activity of representative compounds, of the invention and reference compounds against various sensitive and resistant microorganisms is given in Tables 17 to 20. The test method was in accordance with the standard NCCLS protocol (Methods for Dilution Antimicrobial Susceptibility Tests for Bacteria that grow Aerobicially, Approved Standards, M7-A5, Fifth Edition, January 2000).
as §2

[9] = system: Clinical Isolate MRSA 5076 with Mutations in DNA Gyrase and Topoisomerase IV as well as bearing an Efflux Pump; experiment: microbe, parasite or virus in culture; type: cell-based; conditions: for MIC: Staphylococcus aureus, ATCC 25293 / MRSA, read-out: MICs, S. aureus (sensitive) ATCC 25293
Protocol: as §1, §2

[10] = Staphylococcus aureus, MRSA, MRSA 032
[11] = Streptococcus pneumoniae, FQ^R S. pneumoniae 718

C[C@@H]1CN(c2c(F)c(N)c3c(=O)c(C(=O)O)cn(C4CC4)c3c2F)C[C@H](C)N1 [sparfloxacin]
phototoxic dose [1]: 25 mg/kg

COc1c(N2CCC(N)C(C)(C)C2)c(F)cc2c(=O)c(C(=O)O)cn(C3CC3)c12.Cl (racemic) [Compound 18, (±)-1-Cyclopropyl-6-fluoro-1,4-dihydro-8-methoxy-7-(4-amino-3,3-dimethyl-1-piperidinyl)-4-oxo-quinoline-3-carboxylic acid hydrochloride]
MIC [2, 10]: 0.8 µg/mL | MIC [2, 11]: 0.8 µg/mL | MIC ([3]; read-out: MIC against MRSA 5027, initially): 0.4 µg/mL | MIC ([3]; read-out: MIC against MRSA 5027 after 10 passages in drug containing medium): 0.4 µg/mL | ED50 [4]: 30 mg/kg | Cytotoxic concentration, J 744 Macrophage [5]: >1000 µg/mL | Cytotoxic concentration, V 79 CHL [6]: >1000 µg/mL

Cc1c(N2CCC(O)C(C)(C)C2)c(F)cc2c(=O)c(C(=O)O)cn(C3CC3)c12 (racemic) [Compound 95, (±)-1-Cyclopropyl-6-fluoro-8-methyl-7-(4-hydroxy-3,3-dimethyl-1-piperidinyl)-1,4-dihydro-4-oxo-quinoline-3-carboxylic acid]
MIC ([7]; Enterococcus faecalis, ATCC29212, E. faecalis ATCC 29212): 0.05 µg/mL (≈ 0.129 µM) | MIC ([7]; Escherichia coli, ATCC25922, E. coli ATCC 25922): 0.2 µg/mL (≈ 0.515 µM) | MIC ([7]; Pseudomonas aeruginosa, P. aeruginosa 27853): 3.12 µg/mL (≈ 8.03 µM) | MIC ([7]; S. sanguis ATCC 10556 (Viridans Streptococci group)): 0.025 µg/mL (≈ 0.0644 µM) | MIC ([7]; Staphylococcus aureus, ATCC 25923 / MSSA, MSSA ATCC 25923): 0.003 µg/mL (≈ 0.00772 µM) | MIC ([7]; Streptococcus pneumoniae, ATCC49619, S. pneumoniae ATCC 49619): 0.025 µg/mL (≈ 0.0644 µM) | MIC ([2]; Cipro^R S. sanguis 941): 0.4 µg/mL (≈ 1.03 µM) | MIC [2, 10]: 0.2 µg/mL (≈ 0.515 µM) | MIC ([2]; Streptococcus mitis, Cipro^R S. mitis 938): 0.4 µg/mL (≈ 1.03 µM) | MIC [2, 11]: 0.8 µg/mL (≈ 2.06 µM) | MIC ([8]; Staphylococcus epidermidis, trovafloxacin-resistant methicillin-resistant S. epidermidis (MRSE) 110, 18 hrs at 37° C, read-out: MICs, Trova-Resist MRSE 110): 0.4 µg/mL (≈ 1.03 µM) | MIC ([8]; vancomycin-resistant Enterococcus faecium (VRE) 336, 18 hrs at 37° C, read-out: MICs, VRE 336): 3.12 µg/mL (≈ 8.03 µM) | MICs, MRSA 5076 + efflux inhibitor reserpine ([9]; MRSA 5076 with efflux inhibitor reserpine): 0.2 µg/mL | MIC [9]: 0.003 µg/mL (≈ 0.00772 µM) | Cytotoxic concentration, J 744 Macrophage [5]: >1000 µg/mL | Cytotoxic concentration, V 79 CHL [6]: >1000 µg/mL

Cc1c(N2CCC(N)C(C)(C)C2)c(F)cc2c(=O)c(C(=O)O)cn(C3CC3)c12.Cl (single isomer, unassigned; (-)) [Compound 110, (−)-1-Cyclopropyl-6-fluoro-1,4-dihydro-8-methyl-7-(4-amino-3,3-dimethyl-1-piperidinyl)-4-oxo-quinoline-3-carboxylic acid hydrochloride]
MICs ([7]; E. coli ATCC 25922, hydrochloride): 0.025 µg/mL | MICs ([7]; E. faecalis ATCC 29212, hydrochloride): 0.05 µg/mL | MICs ([7]; MSSA ATCC 25923): 0.025 µg/mL | MICs ([7]; S. pneumoniae ATCC 49619, hydrochloride): 0.025 µg/mL | MICs ([2]; Cipro^R S. sanguis 941, hydrochloride): 1.56 µg/mL | MIC [9]: 0.05 µg/mL | ED50 [4]: 20 mg/kg | Cytotoxic concentration, J 744 Macrophage ([5]; hydrochloride): 1000 µg/mL | Cytotoxic concentration, V 79 CHL ([6]; hydrochloride): 250 µg/mL | melting point: 300 °C
